US11279733B2, “Peptide antibiotics” (priority 2017, dated 2022)
Values after ≈ are worked out from the molar mass of the structure shown. Positions of bridges follow the written chain, without caps; N, C: chain ends. Non-standard residues stand in square brackets, D forms with d. Residues, ends and D or L forms follow the SMILES beside them. *: point of attachment. Decanoyl(3R-OH) = CCCCCCC[C@@H](O)CC(=O)*; dBip = N[C@H](Cc1ccc(-c2ccccc2)cc1)C(=O)O; dPhe(4-NH2) = Nc1ccc(C[C@@H](N)C(=O)O)cc1; d3Pal = N[C@H](Cc1cccnc1)C(=O)O; X11 = CCCCCCCNc1ccc(C(=O)*)cc1; dOrn = NCCC[C@@H](N)C(=O)O; dDab = NCC[C@@H](N)C(=O)O; Octanoyl = CCCCCCCC(=O)*; dDap = NC[C@@H](N)C(=O)O; Dab = NCC[C@H](N)C(=O)O

How the values were obtained:
A. baumannii ATCC 19606 = details: ATCC 19606
Summary of the method: (§1)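 Mid-log cultures grown in Mueller Hinton broth at 37° C were tested by 2-fold broth microdilution at 5×10^5 CFU/mL final. Compounds were dissolved in water and tested over a final range of 32 to 0.015 μg/mL.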

A. baumannii GN_093 PmxR = details: GN 093 PmxR
Summary of the method: as §1

E. coli ATCC 25922 = details: ATCC 25922
Summary of the method: as §1

K. pneumoniae ATCC 13883 = details: ATCC 13883
Summary of the method: as §1

[1] = tested on: K. pneumoniae ATCC 700603, MDR; details: ATCC 700603
Summary of the method: as §1

[2] = tested on: K. pneumoniae ATCC BAA-2146, NDM-1 pos; details: ATCC BAA-2146
Summary of the method: as §1

[3] = tested on: K. pneumoniae GN_102 PmxR; details: GN 102 PmxR
Summary of the method: as §1

[4] = tested on: K. pneumoniae GN_106, PmxR; details: GN 106, PmxR
Summary of the method: as §1

P. aeruginosa ATCC 27853 = details: ATCC 27853
Summary of the method: as §1

[5] = tested on: P. aeruginosa GN_043, PmxR; details: P. aeruginosa GN_043, PmxR
Summary of the method: as §1

[6] = tested on: P. aeruginosa GN_105, PmxR; details: GN 105, PmxR
Summary of the method: as §1

[7] = tested on: S. aureus ATCC 25923, MSSA; details: ATCC 25923
Summary of the method: as §1

in vitro = details: human
Summary of the method: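 HK2 cells were seeded at 2000 per well in DMEM/F12 with 10% FBS and left to attach for 24 h at 37 °C, 5% CO2. They were then exposed for 24 h to 3-fold peptide dilutions starting from 600 μM solutions in quadruplicate. LDH release was read at 450 nm, and CC50 was fitted from dose-response curves.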

| SMILES | MIC A. baumannii ATCC 19606 (A. baumannii ATCC 19606) [µg/mL] | MIC A. baumannii GN_093 PmxR (A. baumannii GN_093 PmxR) [µg/mL] | MIC E. coli ATCC 25922 (E. coli ATCC 25922) [µg/mL] | MIC K. pneumoniae ATCC 13883 (K. pneumoniae ATCC 13883) [µg/mL] | MIC K. pneumoniae ATCC 700603, MDR [1] [µg/mL] | MIC K. pneumoniae ATCC BAA-2146, NDM-1 pos [2] [µg/mL] | MIC K. pneumoniae GN_102 PmxR [3] [µg/mL] | MIC K. pneumoniae GN_106, PmxR [4] [µg/mL] | MIC P. aeruginosa ATCC 27853 (P. aeruginosa ATCC 27853) [µg/mL] | MIC P. aeruginosa GN_043, PmxR [5] [µg/mL] | MIC P. aeruginosa GN_105, PmxR [6] [µg/mL] | MIC S. aureus ATCC 25923, MSSA [7] [µg/mL] | CC50 at 24 h (in vitro) [µM] |
| --- | --- | --- | --- | --- | --- | --- | --- | --- | --- | --- | --- | --- | --- |
| CCCCCCC[C@@H](O)CC(=O)N[C@H](CCN)C(=O)N[C@H]1CCNC(=O)[C@H]([C@@H](C)O)NC(=O)[C@H](CCN)NC(=O)[C@H](CCN)NC(=O)[C@H](CC(C)C)NC(=O)[C@@H](Cc2ccc(-c3ccccc3)cc2)NC(=O)[C@H](CCN)NC1=O [compound 5608, 3(R)OH-nC9CO-D-Dab-cyc[L-Dab-L-Dab-D-Bip-L-Leu-L-Dab-L-Dab-L-Thr]] ({Decanoyl(3R-OH)}-[dDab][Dab][Dab][dBip]L[Dab][Dab]T; lactam 2-C) | 4 (≈ 3.61 µM) | 16 (≈ 14.4 µM) | 2 (≈ 1.8 µM) | 2 (≈ 1.8 µM) | 2 (≈ 1.8 µM) | 2 (≈ 1.8 µM) | 4 (≈ 3.61 µM) | 8 (≈ 7.22 µM) | 2 (≈ 1.8 µM) | 1 (≈ 0.902 µM) | 2 (≈ 1.8 µM) | 4 (≈ 3.61 µM) | 37 |
| CCCCCCC[C@@H](O)CC(=O)N[C@H](Cc1c[nH]c2ccccc12)C(=O)N[C@H]1CCNC(=O)[C@H]([C@@H](C)O)NC(=O)[C@H](CCN)NC(=O)[C@H](CCN)NC(=O)[C@H](CC(C)C)NC(=O)[C@@H](Cc2ccccc2)NC(=O)[C@H](CCN)NC1=O [compound 6394, 3(R)OH-nC9CO-D-Trp-cyc[L-Dab-L-Dab-D-Phe-L-Leu-L-Dab-L-Dab-L-Thr]] ({Decanoyl(3R-OH)}-[dW][Dab][Dab][dF]L[Dab][Dab]T; lactam 2-C) | >64 | >32 | >64 | >64 | >64 | >64 | >32 | >32 | 64 (≈ 57.2 µM) | >32 | >32 | >32 | > 300 |
| CCCCCCC[C@@H](O)CC(=O)N[C@H](CN)C(=O)N[C@H]1CCNC(=O)[C@H]([C@@H](C)O)NC(=O)[C@H](CCN)NC(=O)[C@H](CCN)NC(=O)[C@H](CC(C)C)NC(=O)[C@@H](Cc2ccccc2)NC(=O)[C@H](CCN)NC1=O [compound 6395, 3(R)OH-nC9CO-D-Dap-cyc[L-Dab-L-Dab-D-Phe-L-Leu-L-Dab-L-Dab-L-Thr]] ({Decanoyl(3R-OH)}-[dDap][Dab][Dab][dF]L[Dab][Dab]T; lactam 2-C) | 16 (≈ 15.7 µM) | >32 | 2 (≈ 1.96 µM) | 8 (≈ 7.86 µM) | 1 (≈ 0.982 µM) | 2 (≈ 1.96 µM) | 16 (≈ 15.7 µM) | 32 (≈ 31.4 µM) | 2 (≈ 1.96 µM) | 2 (≈ 1.96 µM) | 2 (≈ 1.96 µM) | >32 | > 300 |
| CCCCCCC[C@@H](O)CC(=O)N[C@H](CCCN)C(=O)N[C@H]1CCNC(=O)[C@H]([C@@H](C)O)NC(=O)[C@H](CCN)NC(=O)[C@H](CCN)NC(=O)[C@H](CC(C)C)NC(=O)[C@@H](Cc2ccccc2)NC(=O)[C@H](CCN)NC1=O [compound 6396, 3(R)OH-nC9CO-D-Orn-cyc[L-Dab-L-Dab-D-Phe-L-Leu-L-Dab-L-Dab-L-Thr]] ({Decanoyl(3R-OH)}-[dOrn][Dab][Dab][dF]L[Dab][Dab]T; lactam 2-C) | >64 | >32 | 16 (≈ 15.3 µM) | >64 | 16 (≈ 15.3 µM) | 32 (≈ 30.6 µM) | >32 | >32 | 16 (≈ 15.3 µM) | 16 (≈ 15.3 µM) | 16 (≈ 15.3 µM) | >32 | > 300 |
| CCCCCCC[C@@H](O)CC(=O)N[C@H](Cc1ccc(N)cc1)C(=O)N[C@H]1CCNC(=O)[C@H]([C@@H](C)O)NC(=O)[C@H](CCN)NC(=O)[C@H](CCN)NC(=O)[C@H](CC(C)C)NC(=O)[C@@H](Cc2ccccc2)NC(=O)[C@H](CCN)NC1=O [compound 6397, 3(R)OH-nC9CO-D-4NH2Phe-cyc[L-Dab-L-Dab-D-Phe-L-Leu-L-Dab-L-Dab-L-Thr]] ({Decanoyl(3R-OH)}-[dPhe(4-NH2)][Dab][Dab][dF]L[Dab][Dab]T; lactam 2-C) | >64 | >32 | >64 | >64 | >64 | >64 | >32 | >32 | >64 | >32 | >32 | >32 | > 300 |
| CCCCCCC[C@@H](O)CC(=O)N[C@H](Cc1cccnc1)C(=O)N[C@H]1CCNC(=O)[C@H]([C@@H](C)O)NC(=O)[C@H](CCN)NC(=O)[C@H](CCN)NC(=O)[C@H](CC(C)C)NC(=O)[C@@H](Cc2ccccc2)NC(=O)[C@H](CCN)NC1=O [compound 6398, 3(R)OH-nC9CO-D-3PyPhe-cyc[L-Dab-L-Dab-D-Phe-L-Leu-L-Dab-L-Dab-L-Thr]] ({Decanoyl(3R-OH)}-[d3Pal][Dab][Dab][dF]L[Dab][Dab]T; lactam 2-C) | >64 | >32 | >64 | >64 | >64 | >64 | 32 (≈ 29.6 µM) | >32 | 32 (≈ 29.6 µM) | >32 | >32 | >32 | > 300 |
| CCCCCCCC(=O)N[C@H](CCN)C(=O)N[C@H]1CCNC(=O)[C@H]([C@@H](C)O)NC(=O)[C@H](CCN)NC(=O)[C@H](CCN)NC(=O)[C@H](CC(C)C)NC(=O)[C@@H](Cc2ccccc2)NC(=O)[C@H](CCN)NC1=O [compound 6399, nC7CO-D-Dab-cyc[L-Dab-L-Dab-D-Phe-L-Leu-L-Dab-L-Dab-L-Thr]] (Octanoyl-[dDab][Dab][Dab][dF]L[Dab][Dab]T; lactam 2-C) | >32 | >32 | 8 (≈ 8.1 µM) | >32 | 16 (≈ 16.2 µM) | >32 | >32 | >32 | 1 (≈ 1.01 µM) | 8 (≈ 8.1 µM) | >32 | >32 | > 300 |
| CCCCCCCNc1ccc(C(=O)N[C@H](CCN)C(=O)N[C@H]2CCNC(=O)[C@H]([C@@H](C)O)NC(=O)[C@H](CCN)NC(=O)[C@H](CCN)NC(=O)[C@H](CC(C)C)NC(=O)[C@@H](Cc3ccccc3)NC(=O)[C@H](CCN)NC2=O)cc1 [compound 6403, 4(C7H15NH)PheCO-D-Dab-cyc[L-Dab-L-Dab-D-Phe-L-Leu-L-Dab-L-Dab-L-Thr]] (X11-[dDab][Dab][Dab][dF]L[Dab][Dab]T; lactam 2-C) | >64 | >32 | >64 | >64 | >64 | >64 | >32 | >32 | 16 (≈ 14.8 µM) | 32 (≈ 29.6 µM) | >32 | >32 | > 300 |
